# Activity calls are given as the source filed them.
# Tests used:
# [1] = THP-1 cell cytotoxicity, dose response, cytotoxicity control for Vif-APOBEC3G degradation inhibitor project, THP-1 cells (AID 1117359); type: functional; conditions: Human immunodeficiency virus 1, THP-1
# [2] = target: T1, Protein RecA (Mycobacterium tuberculosis, UniProt P9WHJ3); test: Fluorescence Cell-Free Homogeneous Dose Retest to Identify Inhibitors of RecA-Intein Splicing Activity. [Related pubchem assays (depositor defined):AID2097, AID2223, AID489010, AID492950]; type: functional
# T1 sequence (P9WHJ3 whole entry): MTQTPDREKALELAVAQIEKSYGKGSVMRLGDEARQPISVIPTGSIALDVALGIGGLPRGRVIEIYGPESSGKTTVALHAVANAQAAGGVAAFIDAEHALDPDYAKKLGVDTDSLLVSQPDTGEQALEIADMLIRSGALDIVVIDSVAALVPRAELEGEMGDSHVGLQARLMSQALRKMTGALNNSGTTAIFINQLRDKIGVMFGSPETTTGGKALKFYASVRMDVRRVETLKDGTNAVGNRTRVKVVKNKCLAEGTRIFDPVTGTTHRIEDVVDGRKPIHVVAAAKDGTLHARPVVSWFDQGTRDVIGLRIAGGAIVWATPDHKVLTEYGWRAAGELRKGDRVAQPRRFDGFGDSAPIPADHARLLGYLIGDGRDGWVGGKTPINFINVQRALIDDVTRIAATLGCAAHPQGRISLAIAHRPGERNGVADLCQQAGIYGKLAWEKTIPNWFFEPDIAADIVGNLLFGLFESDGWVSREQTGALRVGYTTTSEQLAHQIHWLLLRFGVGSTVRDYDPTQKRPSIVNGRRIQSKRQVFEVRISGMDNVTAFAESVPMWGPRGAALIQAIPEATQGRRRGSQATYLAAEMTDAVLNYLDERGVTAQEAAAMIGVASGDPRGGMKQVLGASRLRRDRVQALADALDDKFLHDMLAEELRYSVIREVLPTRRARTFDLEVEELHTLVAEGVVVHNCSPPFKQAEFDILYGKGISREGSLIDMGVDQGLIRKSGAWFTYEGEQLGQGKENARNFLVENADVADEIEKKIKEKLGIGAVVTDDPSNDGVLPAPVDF
# [3] = target: T2, Replicative DNA helicase DnaB (Mycobacterium tuberculosis, UniProt P9WMR3); test: DnaB intein splicing inhibitors, dose response, biochemical, cell-free fluorescence (AID 449749); type: functional
# T2 sequence (P9WMR3 whole entry): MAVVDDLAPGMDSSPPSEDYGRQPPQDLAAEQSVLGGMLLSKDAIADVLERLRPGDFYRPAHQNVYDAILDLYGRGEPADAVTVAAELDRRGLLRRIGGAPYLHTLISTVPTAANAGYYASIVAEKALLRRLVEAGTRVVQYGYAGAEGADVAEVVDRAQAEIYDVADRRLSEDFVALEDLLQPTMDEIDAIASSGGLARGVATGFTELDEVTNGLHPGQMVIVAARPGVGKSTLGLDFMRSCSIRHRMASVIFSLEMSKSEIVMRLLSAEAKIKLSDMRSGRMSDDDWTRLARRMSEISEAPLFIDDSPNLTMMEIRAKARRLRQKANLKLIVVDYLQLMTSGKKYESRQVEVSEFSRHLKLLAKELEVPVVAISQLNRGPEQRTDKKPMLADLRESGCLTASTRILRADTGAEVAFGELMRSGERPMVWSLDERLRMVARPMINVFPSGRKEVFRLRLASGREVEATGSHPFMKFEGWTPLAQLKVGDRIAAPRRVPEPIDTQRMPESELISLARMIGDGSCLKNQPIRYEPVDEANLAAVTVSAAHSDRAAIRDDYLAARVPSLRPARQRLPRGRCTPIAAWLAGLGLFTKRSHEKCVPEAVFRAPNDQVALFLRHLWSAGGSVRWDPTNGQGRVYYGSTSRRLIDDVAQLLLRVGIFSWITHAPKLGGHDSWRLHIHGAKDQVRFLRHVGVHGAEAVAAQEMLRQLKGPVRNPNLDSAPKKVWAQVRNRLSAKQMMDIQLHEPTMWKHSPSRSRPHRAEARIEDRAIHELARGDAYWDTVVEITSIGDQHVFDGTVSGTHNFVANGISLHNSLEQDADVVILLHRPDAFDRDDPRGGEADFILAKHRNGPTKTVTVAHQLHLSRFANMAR
# [4] = target: T3, Polyadenylate-binding protein 1 (Homo sapiens, UniProt P11940); test: PABP1 MLLE–PAM2 interaction inhibitors, dose response, miRNA deadenylation inhibitor project, biochemical, fluorescence polarization, Cy5-PAM2 peptide, secondary (AID 602260); type: functional; conditions: read-out: IC50_Mean
# T3 sequence (P11940 whole entry): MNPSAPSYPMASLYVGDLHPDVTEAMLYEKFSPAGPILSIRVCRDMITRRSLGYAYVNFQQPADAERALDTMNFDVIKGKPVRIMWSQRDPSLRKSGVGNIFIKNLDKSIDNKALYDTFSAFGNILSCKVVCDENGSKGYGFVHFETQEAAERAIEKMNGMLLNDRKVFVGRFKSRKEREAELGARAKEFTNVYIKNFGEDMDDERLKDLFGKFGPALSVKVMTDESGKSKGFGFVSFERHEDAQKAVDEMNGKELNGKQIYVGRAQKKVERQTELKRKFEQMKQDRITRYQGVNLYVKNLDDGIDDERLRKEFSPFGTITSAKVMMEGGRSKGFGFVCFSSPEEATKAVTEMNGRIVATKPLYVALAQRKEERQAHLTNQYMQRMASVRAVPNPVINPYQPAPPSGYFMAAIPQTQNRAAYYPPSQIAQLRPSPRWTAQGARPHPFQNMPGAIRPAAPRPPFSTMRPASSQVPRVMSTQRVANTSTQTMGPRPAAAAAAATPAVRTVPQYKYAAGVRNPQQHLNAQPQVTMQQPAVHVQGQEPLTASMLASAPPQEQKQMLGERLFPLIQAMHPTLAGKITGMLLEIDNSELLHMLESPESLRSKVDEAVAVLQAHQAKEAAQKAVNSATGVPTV
# [5] = target: T3, Polyadenylate-binding protein 1; test: PABP1 MLLE–PAM2 binding inhibitor potency, dose response, biochemical, fluorescence polarization, FITC-PAM2 peptide (AID 602259); type: functional; conditions: read-out: IC50_Mean
# [6] = target: Glyceraldehyde-3-phosphate dehydrogenase (Homo sapiens, UniProt P04406)
# Chain of Glyceraldehyde-3-phosphate dehydrogenase (P04406 whole entry): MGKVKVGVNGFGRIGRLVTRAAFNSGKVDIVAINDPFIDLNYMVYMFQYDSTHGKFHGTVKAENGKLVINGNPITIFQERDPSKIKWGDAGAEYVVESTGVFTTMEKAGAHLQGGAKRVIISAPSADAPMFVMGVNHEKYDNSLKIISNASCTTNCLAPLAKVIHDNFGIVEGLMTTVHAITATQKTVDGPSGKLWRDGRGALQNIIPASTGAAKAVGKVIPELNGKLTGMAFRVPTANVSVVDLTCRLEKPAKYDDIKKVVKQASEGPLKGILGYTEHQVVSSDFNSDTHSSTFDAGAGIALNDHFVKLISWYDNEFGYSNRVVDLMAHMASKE
# [7] = target: T4, Corticotropin-releasing factor receptor 2/Corticotropin-releasing factor-binding protein (Homo sapiens, UniProt P24387+Q13324); test: activators of CRF receptor 2 with binding protein – uHTS hits, confirmation (AID 602473); type: functional; conditions: read-out: EC50_Mean
# T4 sequence (Q13324 whole entry): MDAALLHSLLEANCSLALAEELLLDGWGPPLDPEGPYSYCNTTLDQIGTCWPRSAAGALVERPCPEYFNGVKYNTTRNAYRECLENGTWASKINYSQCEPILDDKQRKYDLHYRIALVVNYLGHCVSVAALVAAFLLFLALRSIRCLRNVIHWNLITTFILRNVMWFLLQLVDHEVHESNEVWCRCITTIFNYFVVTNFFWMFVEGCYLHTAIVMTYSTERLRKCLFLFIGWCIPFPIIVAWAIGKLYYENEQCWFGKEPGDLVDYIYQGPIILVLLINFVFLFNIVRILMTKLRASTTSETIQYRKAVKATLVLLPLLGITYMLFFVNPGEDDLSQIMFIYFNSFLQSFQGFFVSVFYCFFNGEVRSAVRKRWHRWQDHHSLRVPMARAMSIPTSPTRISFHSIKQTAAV
# T4 sequence (P24387 whole entry): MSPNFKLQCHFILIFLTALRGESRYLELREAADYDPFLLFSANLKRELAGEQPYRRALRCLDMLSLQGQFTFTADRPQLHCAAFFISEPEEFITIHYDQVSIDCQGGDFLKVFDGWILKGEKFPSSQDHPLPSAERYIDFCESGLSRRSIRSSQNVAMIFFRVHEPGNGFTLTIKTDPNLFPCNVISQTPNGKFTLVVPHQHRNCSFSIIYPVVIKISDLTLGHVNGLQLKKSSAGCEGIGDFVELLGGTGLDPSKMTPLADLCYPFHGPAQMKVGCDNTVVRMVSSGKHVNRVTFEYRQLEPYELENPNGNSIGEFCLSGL
# [8] = target: Estrogen receptor beta (Homo sapiens, UniProt Q92731);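 note: recombinant ER-beta bound to coactivator SRC1 peptide in presence of estradiol agonist; inhibitors block coactivator peptide binding and lower the FRET signal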
# Chain of Estrogen receptor beta (Q92731 whole entry): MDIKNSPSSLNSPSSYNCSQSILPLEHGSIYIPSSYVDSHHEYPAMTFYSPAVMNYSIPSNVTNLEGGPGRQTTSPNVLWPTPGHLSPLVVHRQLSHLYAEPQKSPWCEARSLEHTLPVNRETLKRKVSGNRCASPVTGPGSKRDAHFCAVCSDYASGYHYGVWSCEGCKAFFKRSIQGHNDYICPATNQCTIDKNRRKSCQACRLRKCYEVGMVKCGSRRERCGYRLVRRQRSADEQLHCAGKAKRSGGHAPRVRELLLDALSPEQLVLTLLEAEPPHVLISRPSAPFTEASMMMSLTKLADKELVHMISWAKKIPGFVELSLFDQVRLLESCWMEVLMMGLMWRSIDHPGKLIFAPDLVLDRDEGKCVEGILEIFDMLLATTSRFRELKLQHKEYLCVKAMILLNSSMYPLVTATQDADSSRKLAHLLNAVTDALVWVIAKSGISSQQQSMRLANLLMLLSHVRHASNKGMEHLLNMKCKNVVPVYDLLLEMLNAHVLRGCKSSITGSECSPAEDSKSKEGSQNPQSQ
# [9] = microbe, parasite or virus in culture; type: functional; conditions: Mycobacterium tuberculosis
# [10] = target: T5, Leucine aminopeptidase (Plasmodium falciparum 3D7, UniProt Q8IL11); test: P. falciparum M17LAP inhibitors, primary screen, biochemical, fluorogenic H-Leu-NHMec substrate, 1536-well (AID 1619); type: functional
# T5 sequence (Q8IL11 whole entry): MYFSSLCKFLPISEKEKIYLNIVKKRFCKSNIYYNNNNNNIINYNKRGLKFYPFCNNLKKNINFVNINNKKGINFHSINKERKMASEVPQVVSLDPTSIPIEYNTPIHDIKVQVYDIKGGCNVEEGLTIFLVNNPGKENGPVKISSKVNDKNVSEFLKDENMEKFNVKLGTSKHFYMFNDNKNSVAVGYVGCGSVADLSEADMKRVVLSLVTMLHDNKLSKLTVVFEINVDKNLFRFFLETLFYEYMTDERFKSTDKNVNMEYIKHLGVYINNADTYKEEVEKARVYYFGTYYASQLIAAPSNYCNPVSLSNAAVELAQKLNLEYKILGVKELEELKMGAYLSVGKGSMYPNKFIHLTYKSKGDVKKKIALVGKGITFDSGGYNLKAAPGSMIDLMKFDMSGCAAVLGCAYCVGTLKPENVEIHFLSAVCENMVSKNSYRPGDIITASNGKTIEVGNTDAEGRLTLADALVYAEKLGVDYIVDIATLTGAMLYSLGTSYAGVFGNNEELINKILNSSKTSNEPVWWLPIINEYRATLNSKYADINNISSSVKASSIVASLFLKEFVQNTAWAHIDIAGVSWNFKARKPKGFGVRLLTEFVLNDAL
# [11] = target: Genome polyprotein (dengue virus type 2, UniProt P29990); test: Dengue-2 NS5 methyltransferase inhibitors, primary screen, biochemical, confirmation dose response (AID 588689); type: functional
# Chain of Genome polyprotein (P29990 2492-3391 limits assumed): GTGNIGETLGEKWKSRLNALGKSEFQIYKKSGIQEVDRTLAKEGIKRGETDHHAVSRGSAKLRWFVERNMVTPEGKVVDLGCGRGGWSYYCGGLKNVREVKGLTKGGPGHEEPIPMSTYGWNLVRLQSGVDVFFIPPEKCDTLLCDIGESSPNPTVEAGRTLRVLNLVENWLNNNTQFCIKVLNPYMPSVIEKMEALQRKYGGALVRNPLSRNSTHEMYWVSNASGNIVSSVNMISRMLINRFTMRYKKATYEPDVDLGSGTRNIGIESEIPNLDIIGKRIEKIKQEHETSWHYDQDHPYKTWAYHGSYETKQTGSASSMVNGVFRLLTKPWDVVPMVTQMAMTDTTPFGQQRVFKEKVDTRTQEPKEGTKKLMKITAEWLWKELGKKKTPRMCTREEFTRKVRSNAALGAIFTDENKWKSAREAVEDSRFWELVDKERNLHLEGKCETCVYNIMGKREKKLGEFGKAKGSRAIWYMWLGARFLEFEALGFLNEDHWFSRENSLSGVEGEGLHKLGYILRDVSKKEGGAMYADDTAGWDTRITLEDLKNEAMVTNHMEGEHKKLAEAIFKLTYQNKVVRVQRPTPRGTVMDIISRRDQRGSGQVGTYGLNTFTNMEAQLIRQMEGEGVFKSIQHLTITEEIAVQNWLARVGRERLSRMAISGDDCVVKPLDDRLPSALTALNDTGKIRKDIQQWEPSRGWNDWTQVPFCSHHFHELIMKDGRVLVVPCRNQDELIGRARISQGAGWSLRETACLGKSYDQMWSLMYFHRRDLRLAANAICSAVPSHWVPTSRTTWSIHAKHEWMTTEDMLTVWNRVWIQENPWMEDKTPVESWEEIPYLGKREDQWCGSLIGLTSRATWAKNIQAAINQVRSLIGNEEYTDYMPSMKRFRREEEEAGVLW
# [12] = target: Beta Lactamase (Pseudomonas aeruginosa, UniProt Q932Y6); test: beta-lactamase reporter inhibitor potency, dose response, artefact control for TLR9-MyD88 binding inhibitor project, BLA reporter cells, FRET fluorescence (AID 588341); type: cell-based;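 note: cell based assay in CHO-K1 cells stably expressing beta-lactamase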
# Chain of Beta Lactamase (Q932Y6 whole entry, the tested form may be a part): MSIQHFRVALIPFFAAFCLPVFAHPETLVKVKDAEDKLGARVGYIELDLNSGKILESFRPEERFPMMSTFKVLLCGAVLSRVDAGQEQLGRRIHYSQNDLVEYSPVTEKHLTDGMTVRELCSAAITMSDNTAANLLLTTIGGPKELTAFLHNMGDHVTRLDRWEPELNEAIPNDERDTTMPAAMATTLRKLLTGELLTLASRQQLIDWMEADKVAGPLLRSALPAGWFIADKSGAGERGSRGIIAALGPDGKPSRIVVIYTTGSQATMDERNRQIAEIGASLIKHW
# [13] = test system: CHO; test: cytotoxicity in TLR9-MyD88 CHO cells, dose response, cytotoxicity control for TLR9-MyD88 binding inhibitor project, cell-based, luminescence (AID 588339); type: functional, hamster; conditions: Cricetulus griseus;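 note: CHO cells stably coexpressing TLR9 and MyD88 fusions from primary screen; compound exposure lasted 48 hours before viability readout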
# [14] = intracellular Trypanosoma cruzi inhibitors in host cells – cell-based, plate reader, cherry-pick samples, set 3, dose response (AID 651818); type: functional;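 note: compounds incubated with infected cells for about four days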
# [15] = target: Cytochrome P450 2C19 (Homo sapiens, UniProt P33261); test: Cytochrome panel assay with activity outcomes. Panel member name: p450-cyp2c19 Compounds with AC50 equal or less than 10 uM are considered active; type: functional
# Chain of Cytochrome P450 2C19 (P33261 whole entry): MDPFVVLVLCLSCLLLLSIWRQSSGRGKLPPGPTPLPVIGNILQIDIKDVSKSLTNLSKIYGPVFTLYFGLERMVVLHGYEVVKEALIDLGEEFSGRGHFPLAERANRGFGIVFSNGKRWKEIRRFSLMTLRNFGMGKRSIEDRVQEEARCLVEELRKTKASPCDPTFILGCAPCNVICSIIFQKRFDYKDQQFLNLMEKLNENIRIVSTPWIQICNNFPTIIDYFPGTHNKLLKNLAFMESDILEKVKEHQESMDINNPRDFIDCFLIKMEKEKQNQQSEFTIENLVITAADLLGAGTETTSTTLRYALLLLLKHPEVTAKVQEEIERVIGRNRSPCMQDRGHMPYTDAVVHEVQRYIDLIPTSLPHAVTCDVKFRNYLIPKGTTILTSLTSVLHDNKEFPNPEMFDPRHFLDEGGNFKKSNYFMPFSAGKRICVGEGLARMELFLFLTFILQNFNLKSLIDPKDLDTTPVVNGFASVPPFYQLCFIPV
# [16] = target: Cytochrome P450 2C9 (Homo sapiens, UniProt P11712)
# Chain of Cytochrome P450 2C9 (P11712 whole entry): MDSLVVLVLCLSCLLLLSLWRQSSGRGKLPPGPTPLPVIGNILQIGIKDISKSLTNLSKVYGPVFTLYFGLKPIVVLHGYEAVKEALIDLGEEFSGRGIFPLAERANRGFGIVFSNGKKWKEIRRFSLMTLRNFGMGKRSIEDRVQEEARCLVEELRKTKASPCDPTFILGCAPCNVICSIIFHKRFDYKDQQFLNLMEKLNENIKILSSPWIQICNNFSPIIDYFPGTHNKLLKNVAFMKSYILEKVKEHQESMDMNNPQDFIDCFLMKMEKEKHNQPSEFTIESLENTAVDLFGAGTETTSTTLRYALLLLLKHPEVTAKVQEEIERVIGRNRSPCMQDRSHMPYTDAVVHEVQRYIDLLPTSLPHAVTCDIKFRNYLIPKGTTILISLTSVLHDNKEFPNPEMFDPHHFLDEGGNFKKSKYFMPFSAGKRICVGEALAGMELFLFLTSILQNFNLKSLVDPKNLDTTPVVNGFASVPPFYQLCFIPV
# [17] = target: Cytochrome P450 3A4 (Homo sapiens, UniProt P08684);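 note: CYP3A4 tested as one member of a cytochrome P450 panel screen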
# Chain of Cytochrome P450 3A4 (P08684 whole entry): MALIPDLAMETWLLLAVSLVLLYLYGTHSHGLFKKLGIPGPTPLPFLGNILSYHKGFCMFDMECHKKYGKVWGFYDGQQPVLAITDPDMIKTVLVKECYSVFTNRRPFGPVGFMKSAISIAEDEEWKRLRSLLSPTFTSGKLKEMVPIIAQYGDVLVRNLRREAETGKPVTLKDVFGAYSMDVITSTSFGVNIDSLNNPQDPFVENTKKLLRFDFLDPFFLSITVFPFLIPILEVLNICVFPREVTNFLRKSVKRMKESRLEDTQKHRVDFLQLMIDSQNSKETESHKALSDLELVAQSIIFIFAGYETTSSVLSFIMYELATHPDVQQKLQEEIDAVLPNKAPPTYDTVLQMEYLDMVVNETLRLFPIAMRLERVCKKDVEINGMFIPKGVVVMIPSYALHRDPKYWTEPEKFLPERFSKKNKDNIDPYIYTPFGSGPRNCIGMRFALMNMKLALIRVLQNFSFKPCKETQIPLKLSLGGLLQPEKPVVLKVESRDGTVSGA
smiles,measurement,setting,value
COc1cccc(/C=C2\SC(N)=NC2=O)c1OS(=O)(=O)c1ccccc1,CC50,[1],> 40 µM (active)
N#CCCN(C(=O)CCl)c1cccc(Cl)c1,EC50,[2],8.64 µM (active)
same,AC50,[3],78.4 µM (active)
CS(=O)(=O)c1cccc(C(=O)Nc2nnc(C3=COCCO3)o2)c1,IC50,[4],> 66 µM (inactive)
same,IC50,[5],> 66 µM (inactive)
O=C(O)CCCCC(=O)c1ccc(CC(=O)O)s1,IC50,[6],> 100 µM (not active)
COC(=O)c1scc2c(O)cc(C(F)(F)F)nc12,IC50,[4],> 66 µM (inactive)
same,IC50,[5],35.7 µM (inactive)
same,EC50,[7],5.75 µM (active)
N#Cc1cc2c(=O)n3ccccc3nc2n(CCCn2ccnc2)c1=N,IC50,[8],> 50 µM (not active)
Cc1ccc(S(=O)(=O)NC(CC(C)C)C(=O)N2CCN(C/C=C/c3ccccc3)CC2)cc1 (centres undefined),CC50,[9],> 40 µM (active)
same,CC50,[1],> 40 µM (active)
CCOc1ccc(C(=O)CN2CCN(S(=O)(=O)c3ccc(OC)cc3)CC2)cc1,IC50,[10],73.5 µM (active)
O=C1NC(=S)N/C1=C\c1ccc(-c2cc([N+](=O)[O-])ccc2Br)o1,IC50,[6],> 100 µM (not active)
N#CC1=C(N)Oc2[nH]nc(-c3ccc(F)cc3)c2C1c1cccc(OC(=O)N2CCOCC2)c1 (centres undefined),EC50,[2],1.29 µM (active)
same,AC50,[3],6.74 µM (active)
Clc1ccc(-c2nc3cnccn3c2Nc2ccc3c(c2)OCO3)cc1,CC50,[1],19.9 µM (active)
COc1ccc(CCN(C)C(=O)COC(=O)/C=C/c2ccc(C)o2)cc1OC,CC50,[1],> 40 µM (active)
CCC(=O)NC(=S)Nc1c(C)cc(Br)cc1C,IC50,[4],> 66 µM (inactive)
same,IC50,[5],> 66 µM (inactive)
COc1ccccc1-c1c(C)nn2c(O)c(Cc3ccccc3)c(C)nc12,CC50,[1],> 40 µM (active)
Cc1ccc(-n2nc(C)c3c2OC(N)=C(C#N)C3c2ccoc2)cc1 (centres undefined),EC50,[2],2.56 µM (active)
same,AC50,[3],5.41 µM (active)
O=C(NNC(=O)C1CC2CCC1C2)c1sc2ccccc2c1Cl (centres undefined),IC50,[10],68.1 µM (active)
O=C1C(Cl)=C(N2CCN(CCO)CC2)C(=O)N1c1cccc(C(F)(F)F)c1,IC50,[6],> 50 µM (inconclusive)
CC1(C(=O)O)CC(C)(C(=O)O)CC(C)(C(=O)O)C1 (centres undefined),IC50,[10],58.7 µM (active)
O=C(O)c1cc([N+](=O)[O-])c(Nc2cccc3ccccc23)c([N+](=O)[O-])c1,IC50,[11],64.7 µM (active)
c1cncc(CNc2ncnc3sc4c(c23)CCCC4)c1,EC50,[2],> 380 µM (inactive)
same,AC50,[3],> 380 µM (inactive)
COc1ccc(OC)c(C=Cc2ccc([N+](=O)[O-])cc2)c1,IC50,[12],8.19 µM (active)
same,IC50,[13],> 49.7 µM (inactive)
C[C@H]1CN([C@@H](C)CO)C(=O)c2cccc(NC(=O)Nc3cccc4ccccc34)c2O[C@H]1CN(C)Cc1ccc(C(F)(F)F)cc1,AC50,[14],2.85 µM (active)
C[C@H](CO)N1C[C@H](C)[C@@H](CN(C)CC2CC2)Oc2c(NC(=O)CCCCCC(=O)Nc3ccccc3N)cccc2C1=O,AC50,[14],2.88 µM (active)
C[C@@H]1CN([C@H](C)CO)C(=O)c2cccc(NC(=O)CCCCCC(=O)Nc3ccccc3N)c2O[C@@H]1CN(C)S(=O)(=O)c1ccc(F)cc1,AC50,[14],3.66 µM (active)
C[C@H](CO)N1C[C@H](C)[C@H](CN(C)Cc2ccc(Cl)c(Cl)c2)Oc2c(NC(=O)Nc3ccc4c(c3)OCO4)cccc2C1=O,AC50,[14],2.61 µM (active)
C[C@@H]1CCCCO[C@@H](CN(C)CC2CCCCC2)[C@@H](C)CN([C@H](C)CO)C(=O)c2cc(NC(=O)Nc3ccc(C(F)(F)F)cc3)ccc2O1,AC50,[14],1.63 µM (active)
Cc1[nH]n(-c2ccccc2)c(=O)c1Sc1ccc(Cl)cc1,IC50,[10],37.4 µM (active)
same,EC50,[2],4.68 µM (active)
same,AC50,[3],12.2 µM (active)
same,IC50,[8],> 50 µM (not active)
COc1ccc(-n2c(SC)nc(O)c(Cc3ccccc3)c2=O)cc1,AC50,[15],7.94 µM (inconclusive)
same,IC50,[10],46 µM (active)
same,AC50,[16],12.6 µM (inconclusive)
same,AC50,[17],22.4 µM (inconclusive)

# Source: ChEMBL document CHEMBL1201862, “PubChem BioAssay data set” (2004)
